From ChEMBL document CHEMBL5465560, “Selectivity Literature for EUbOPEN Chemogenomic Library” (2024)
Numbering of substitutions follows the chain as printed.

Tests used:
Settings in all cases: at 10 µM
[1] = molecular target: Receptor-type tyrosine-protein kinase FLT3 (Homo sapiens) (UniProt P36888); assay: (§1) Selectivity interaction (KinomeScan (DiscoverX)) EUB0000655a FLT3
[2] = tested on: T1, Receptor-type tyrosine-protein kinase FLT3 (Homo sapiens), P36888 [K663Q]; assay: as §1
T1 sequence (whole entry): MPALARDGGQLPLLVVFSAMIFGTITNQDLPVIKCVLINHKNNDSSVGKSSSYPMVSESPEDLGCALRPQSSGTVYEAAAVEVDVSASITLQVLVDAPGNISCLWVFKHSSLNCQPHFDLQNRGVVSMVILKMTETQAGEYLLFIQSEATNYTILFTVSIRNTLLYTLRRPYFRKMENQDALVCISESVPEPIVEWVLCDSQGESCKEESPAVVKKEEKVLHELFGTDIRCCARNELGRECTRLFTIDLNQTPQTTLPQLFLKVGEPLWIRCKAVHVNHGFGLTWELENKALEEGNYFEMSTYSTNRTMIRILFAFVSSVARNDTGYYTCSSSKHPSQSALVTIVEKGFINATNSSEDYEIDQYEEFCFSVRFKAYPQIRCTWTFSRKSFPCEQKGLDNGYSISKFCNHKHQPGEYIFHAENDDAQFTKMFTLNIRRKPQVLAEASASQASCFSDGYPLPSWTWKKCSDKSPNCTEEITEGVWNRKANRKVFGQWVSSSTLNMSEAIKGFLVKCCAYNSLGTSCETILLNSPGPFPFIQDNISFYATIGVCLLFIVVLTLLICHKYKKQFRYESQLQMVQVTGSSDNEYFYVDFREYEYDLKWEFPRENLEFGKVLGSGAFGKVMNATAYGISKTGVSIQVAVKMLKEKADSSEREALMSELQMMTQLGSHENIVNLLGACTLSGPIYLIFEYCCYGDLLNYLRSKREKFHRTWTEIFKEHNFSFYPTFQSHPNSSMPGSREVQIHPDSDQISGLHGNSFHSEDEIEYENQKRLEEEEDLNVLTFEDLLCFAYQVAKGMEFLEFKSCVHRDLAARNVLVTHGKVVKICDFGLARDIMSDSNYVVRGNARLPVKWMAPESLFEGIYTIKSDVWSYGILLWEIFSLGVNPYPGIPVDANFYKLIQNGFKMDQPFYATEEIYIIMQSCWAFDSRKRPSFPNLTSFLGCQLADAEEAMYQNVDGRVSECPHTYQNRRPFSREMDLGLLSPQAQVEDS

[3] = tested on: T2, Receptor-type tyrosine-protein kinase FLT3 (Homo sapiens), P36888 [N841I]; assay: as §1
T2 sequence (whole entry): T1 sequence (whole entry) with Q663K, N841I

[4] = tested on: T3, Receptor-type tyrosine-protein kinase FLT3 (Homo sapiens), P36888 [R834Q]; assay: as §1
T3 sequence (whole entry): T1 sequence (whole entry) with Q663K, R834Q

CN(C)CCOc1ccc(-c2nc(-c3ccncc3)c(-c3ccc4c(c3)CC/C4=N\O)[nH]2)cc1
% of control [1]: 62% | % of control [2]: 90% | % of control [3]: 81% | % of control [4]: 100%
